Several values for one entry are separate records, joined by “and”; a condition that tells them apart may be missing. Equal entries are not always repeated.
Tests used:
[1] = Log P by HPLC on reversed phase columns (LC-UV), method [a]: acidic range, 0.1% formic acid in water / acetonitrile; format: physicochemical; conditions: for chromatographic logP: Table 17, compounds of formula (10)
Protocol: Measurement of Log P Values
Measurement of Log P values as provided herein was performed according to EEC directive 79/831 Annex V.A8 by HPLC (High Performance Liquid Chromatography) on reversed phase columns with the following methods: • ^[a]
If more than one Log P value is available within the same method, all the values are given and separated by “+”.

Colletotrichum coccodes = experiment: in vitro-Test with fungal microorganisms, Method B (tables J1-J11); format: cell-based
How it was run: (§1)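 Efficacy scale: 0% means growth equal to the untreated control, 100% means none detected. Compounds are dried from methanol with emulsifier before adding inoculated growth medium; incubation at 20° C., 85% relative humidity for 3 to 7 days precedes photometric inhibition readout.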

Cercospora beticola [2] = experiment: in vitro-Test with fungal microorganisms, Method B (tables C11-C20); format: cell-based
How it was run: as §1

Diaporthe citri [3] = experiment: in vitro-Test with fungal microorganisms, Method B (tables F12-F15); format: cell-based; conditions: Table F14
How it was run: as §1

[4] = system: Ustilago segetum var. avenae; experiment: in vitro-Test with fungal microorganisms, Method B (tables I6-I11); format: cell-based
How it was run: as §1

[5] = system: Colletotrichum lindemuthianum; experiment: in vitro-Test with fungal microorganisms, Method A (tables D1-D8); format: cell-based
How it was run: (§2)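 Methanol/emulsifier compound solution evaporated in well; liquid potato dextrose medium + spore or mycelium suspension added; 20° C, 85% RH, 3-5 d; photometric read 620 nm; % efficacy vs untreated.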

Parastagonospora nodorum [6] = experiment: in vitro-Test with fungal microorganisms, Method A (tables H1-H4); format: cell-based
How it was run: as §2

Botrytis cinerea [7] = experiment: in vitro-Test with fungal microorganisms, Method B (tables B15-B18); format: cell-based
How it was run: as §1

Fusarium culmorum [8] = experiment: in vitro-Test with fungal microorganisms, Method A (tables G1-G4); format: cell-based; conditions: Table G1
How it was run: as §2

Cordana musae = experiment: in vitro-Test with fungal microorganisms, Method A (tables E1-E8); format: cell-based; conditions: single substance
How it was run: as §2

Parastagonospora nodorum [9] = experiment: in vitro-Test with fungal microorganisms, Method B (tables H5-H8); format: cell-based
How it was run: as §1

Alternaria alternata = experiment: in vitro-Test with fungal microorganisms, Method B (tables A13-A22); format: cell-based
How it was run: as §1

Diaporthe citri [10] = experiment: in vitro-Test with fungal microorganisms, Method A (tables F1-F11); format: cell-based
How it was run: as §2

Cercospora beticola [11] = experiment: in vitro-Test with fungal microorganisms, Method A (tables C1-C10); format: cell-based
How it was run: as §2

Alternaria alternate = experiment: in vitro-Test with fungal microorganisms, Method A (tables A1-A12); format: cell-based, Alternaria alternata; conditions: applied alone
How it was run: as §2

[12] = system: Ustilago segetum var. avenae; experiment: in vitro-Test with fungal microorganisms, Method A (tables I1-I5); format: cell-based; conditions: alone
How it was run: as §2

Botrytis cinerea [13] = experiment: in vitro-Test with fungal microorganisms, Method A (tables B1-B14); format: cell-based; conditions: for Efficacy %: alone
How it was run: as §2

Fusarium culmorum [14] = experiment: in vitro-Test with fungal microorganisms, Method B (tables G5-G15); format: cell-based; conditions: single active compound
How it was run: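 Cpd in MeOH + alkylaryl-polyglycol-ether, solvent evaporated; liquid medium + fungal spores/mycelium added; OD600 read; 3–7 d, 20° C., 85% RH; growth inhibition by photometry, % efficacy vs untreated ctrl.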

[15] = method [a], acidic range (0.1% formic acid)

Structure (SMILES): CON(C)C(=O)c1cc(Cl)nnc1Oc1cccc(C(F)(F)F)c1 [Compound 1-07]
- LogP ([1]; method [a], acidic range (0.1% formic acid), Table 3, compounds of formula (1)): 2.90^[a]

Structure (SMILES): N/C(=N\O)c1cc(Cl)nnc1Oc1cccc(Cl)c1 [Compound 10-04]
- chromatographic logP [1, 15]: 2

Structure (SMILES): FC(F)(F)c1cccc(Oc2nnc(Cl)cc2C2=NOC[C@H](Cc3ccccc3)N2)c1 [Compound I-070, (5S)-5-benzyl-3-[6-chloro-3-[3-(trifluoro-methyl)phenoxy]pyridazin-4-yl]-5,6-dihydro-4H-1,2,4-oxadiazine]
- LogP ([1]; method [a]: HPLC, acidic range, 0.1% formic acid in water / acetonitrile): 3.81^[a]

Structure (SMILES): N/C(=N\O)c1cc(Cl)nnc1Oc1cccc(C2CC2)c1F [Compound 10-07]
- chromatographic logP [1, 15]: 2.34

Structure (SMILES): N/C(=N\O)c1cc(Cl)nnc1Oc1cccc(C(F)F)c1F [Compound 10-09]
- chromatographic logP [1, 15]: 1.91

Structure (SMILES): CC(O)(Cn1cncn1)c1ccc(Oc2ccc(Cl)cc2)cc1C(F)(F)F (stereo not shown) [(1.055) mefentrifluconazole, mefentrifluconazole]
- Efficacy % (Colletotrichum coccodes; 0.008 ppm): 0%
- Efficacy % (Colletotrichum coccodes; 0.2 ppm): 34%
- Efficacy % (Colletotrichum coccodes; 1 ppm): 100%
- Efficacy % (Colletotrichum coccodes; single active compound at 0.2 ppm): 22%
- Efficacy % (Cercospora beticola [2]; 0.008 ppm): 24%
- Efficacy % (Cercospora beticola [2]; 0.04 ppm): 84%
- Efficacy % (Cercospora beticola [2]; single compound, 0.008 ppm): 14%
- Efficacy % (Cercospora beticola [2]; single compound, 0.04 ppm): 93%
- Efficacy (Diaporthe citri [3]; 0.008 ppm alone): 8%
- Efficacy (Diaporthe citri [3]; 0.04 ppm alone): 21%
- Efficacy (Diaporthe citri [3]; 0.2 ppm alone): 94%
- Efficacy (Diaporthe citri [3]; 1 ppm alone): 99%
- Efficacy % ([4]; 0.008 ppm): 4%
- Efficacy % ([4]; 0.04 ppm): 3%
- Efficacy % ([4]; 0.2 ppm): 41%
- Efficacy % ([4]; 1 ppm): 100%
- Efficacy % ([4]; alone, 0.2 ppm): 53%
- Efficacy % ([4]; alone, 1 ppm): 100%
- Efficacy % ([5]; mixing partner alone, 0.008 ppm): 0%
- Efficacy % ([5]; mixing partner alone, 0.04 ppm): 0%
- Efficacy % ([5]; mixing partner alone, 0.2 ppm): 6%
- Efficacy % ([5]; mixing partner alone, 1.0 ppm): 13%
- Efficacy % ([5]; single active at 0.008 ppm): 7% and 0%
- Efficacy % ([5]; single active at 0.04 ppm): 0% and 3%
- Efficacy % ([5]; single active at 0.2 ppm): 11%
- Efficacy % ([5]; single active at 1.0 ppm): 0%
- Efficacy (Parastagonospora nodorum [6]; 0.008 ppm): 89%
- Efficacy (Parastagonospora nodorum [6]; 0.04 ppm): 99%
- Efficacy (Parastagonospora nodorum [6]; 0.2 ppm): 99%
- Efficacy (Parastagonospora nodorum [6]; 1.0 ppm): 100%
- Efficacy (Parastagonospora nodorum [6]; single active compound, 0.008 ppm): 90%
- Efficacy (Parastagonospora nodorum [6]; single active compound, 0.04 ppm): 97%
- Efficacy (Parastagonospora nodorum [6]; single active compound, 0.2 ppm): 100%
- Efficacy (Parastagonospora nodorum [6]; single active compound, 1.0 ppm): 100%
- Efficacy % (Botrytis cinerea [7]; 0.008 ppm alone): 0%
- Efficacy % (Botrytis cinerea [7]; 0.04 ppm alone): 0%
- Efficacy % (Botrytis cinerea [7]; 0.2 ppm alone): 30%
- Efficacy (Fusarium culmorum [8]; 0.008 ppm alone): 20%
- Efficacy (Fusarium culmorum [8]; 0.04 ppm alone): 22%
- Efficacy (Fusarium culmorum [8]; 0.2 ppm alone): 5%
- Efficacy (Fusarium culmorum [8]; 1.0 ppm alone): 33%
- Efficacy % (Cordana musae; 0.008 ppm): 4%
- Efficacy % (Cordana musae; 0.04 ppm): 29%
- Efficacy % (Cordana musae; 0.2 ppm): 100%
- Efficacy % (Cordana musae; 1.0 ppm): 100%
- Efficacy (Parastagonospora nodorum [9]; 0.008 ppm): 84%
- Efficacy (Parastagonospora nodorum [9]; 0.04 ppm): 99%
- Efficacy (Alternaria alternata; 0.008 ppm): 9%
- Efficacy (Alternaria alternata; 0.04 ppm): 19%
- Efficacy (Alternaria alternata; 0.2 ppm): 91%
- Efficacy (Alternaria alternata; single compound, 0.2 ppm): 65%
- Efficacy (Alternaria alternata; single compound, 1 ppm): 99%
- Efficacy (Diaporthe citri [10]; applied alone, 0.008 ppm): 0%
- Efficacy (Diaporthe citri [10]; applied alone, 0.04 ppm): 60% and 38%
- Efficacy (Diaporthe citri [10]; applied alone, 0.2 ppm): 100%
- Efficacy (Diaporthe citri [10]; applied alone, 1.0 ppm): 100%
- Efficacy (Diaporthe citri [10]; single active, 0.008 ppm): 17%
- Efficacy (Diaporthe citri [10]; single active, 0.04 ppm): 69%
- Efficacy (Diaporthe citri [10]; single active, 0.2 ppm): 99%
- Efficacy (Diaporthe citri [10]; single active, 1.0 ppm): 100%
- Efficacy % (Cercospora beticola [11]; 0.008 ppm): 12%
- Efficacy % (Cercospora beticola [11]; 0.008 ppm alone): 60% and 80%
- Efficacy % (Cercospora beticola [11]; 0.04 ppm): 100%
- Efficacy % (Cercospora beticola [11]; 0.04 ppm alone): 100% and 91%
- Efficacy % (Cercospora beticola [11]; 0.2 ppm): 100%
- Efficacy % (Cercospora beticola [11]; 0.2 ppm alone): 100%
- Efficacy % (Cercospora beticola [11]; 1.0 ppm): 100%
- Efficacy % (Cercospora beticola [11]; 1.0 ppm alone): 100%
- Efficacy % (Alternaria alternate; 0.008 ppm): 9%
- Efficacy % (Alternaria alternate; 0.04 ppm): 58% and 32%
- Efficacy % (Alternaria alternate; 0.2 ppm): 96% and 100%
- Efficacy % (Alternaria alternate; 1.0 ppm): 100% and 99%
- Efficacy % ([12]; 0.008 ppm): 0%
- Efficacy % ([12]; 0.04 ppm): 4%
- Efficacy % ([12]; 0.2 ppm): 100%
- Efficacy % ([12]; 1.0 ppm): 100%
- Efficacy (Botrytis cinerea [13]; 0.008 ppm): 0%
- Efficacy (Botrytis cinerea [13]; 0.04 ppm): 37%
- Efficacy (Botrytis cinerea [13]; 0.2 ppm): 78%
- Efficacy % (Botrytis cinerea [13]; 0.008 ppm): 0%
- Efficacy % (Botrytis cinerea [13]; 0.04 ppm): 0%
- Efficacy % (Botrytis cinerea [13]; 0.2 ppm): 53%
- Efficacy % (Botrytis cinerea [13]; 1.0 ppm): 100%
- Efficacy (Fusarium culmorum [14]; 0.008 ppm): 11% and 3%
- Efficacy (Fusarium culmorum [14]; 0.04 ppm): 16% and 24%
- Efficacy (Fusarium culmorum [14]; 1 ppm): 24% and 33%

Source: patent US12653191B2, “Active compound combinations” (Bayer Aktiengesellschaft, priority 2020, dated 2026)
